Measurements published in US20130089536A1, “PHARMACEUTICAL COMPOSITION TO PREVENT AND TREAT ALZHEIMER'S DISEASE COMPRISING GCP II MUTANT” (KOREA CENTER FOR DISEASE CONTROL AND PREVENTION, priority 2011, published 2013).
Entries after “also recorded” stand apart in the source; their conditions may differ.

Experiments:
[1] = NAAG hydrolysis by GCP II mutants, lysate of transfected H4 cells; assay type: biochemical; details: H4 cell lysate, [3H]-labeled NAAG 20 μM, FIG. 3a
Method: The inventors of the present invention also investigated the changes of enzyme activity of GCP II mutant. To analyze enzyme activity of various mutants, mutant proteins with a substitution in the S1′ pocket (R210A, K699S) or S1 pocket (R536L, G548P) were transfected in H4 cells. To measure NAAG hydrolysis, cell lysate was incubated with [H]^3-labeled NAAG (20 μM) and GCP II specific […]. […] Additionally, to examine the effect of Aβ on NAAG cleavage of GCP II, rhGCP II was incubated with [H]^3-labeled NAAG (20 μM) and Aβ peptides at the same time. As a result, NAAG cleavage activity of GCP II was not affected by Aβ peptide (see FIG. 3b).
The activity of endogenous or over-expressed Glutamate carboxypeptidase II protein (GCP II) was measured as follows. Cell lysate (50 μg) was incubated with 20 μM of N-acetyl-L-aspartyl-L-[3,4-3H] glutamate (NAAG; NEN corporation) with or without 20 nM 2-PMPA, a GCP II specific inhibitor, in a total volume of 100 μl containing 50 mM HEPES and 150 mM NaCl for 1 hr at 37° C. Upon completion of the reaction, sample mixture was loaded on AG 1-X8 anion-exchange resin (Biorad) prepared in 96 well columns, followed by centrifugation at 2000 rpm for 5 min. […] All the eluted samples were mixed with 1 ml of scintillation solution (Optiphase HiSafe; Wallac) and then radioactivity was measured by scintillation counter (Wallac Inc.). […]

[2] = tested on: Aβ; experiment: Cleavage of exogenously treated Aβ in culture medium of transfected cells, ELISA; assay type: cell-based; details: 1 ng/ml Aβ one day after transfection, 8 hr at 37° C., FIG. 4c
Method: (§1) To identify Aβ clearance activity of GCP II mutants, various mutant plasmids were transfected in PC3 cells known not to express endogenous GCP II. After 48 hr, the cell lysates were mixed with Aβ (2 μM) and incubated for overnight. The remaining Aβ peptides were detected by dot blotting and western blotting using 6E10 antibody. […] The inventors of the present invention also measured cleavage activity of GCP II on exogenously treated Aβ peptides in culture medium by ELISA. One day after transfection, 1 ng/ml Aβ was treated into the medium, followed by incubation for 8 hr at 37° C. Similarly with western blotting, residual Aβ was reduced by K699S but not by G548P (see FIG. 4c).
Vectors encoding the hGCP II and various mutant hGCP II genes were transfected into PC3 cells in a 12-well plate. About 30 hr later, the culture medium was changed with fresh one treated with Aβ1-40 of Aβ1-42 peptide in the presence or absence of 2-PMPA, and the cells were incubated for another 8 hr. The medium was collected and assayed for residual Aβ1-40 or Aβ1-42 using ELISA kits (Invitrogen) following manufacturer's protocol. Cells transfected with the empty pcDNA3 empty vector were used as the negative control. […]

[3] = tested on: Aβ; experiment: Aβ clearance activity of GCP II mutants, lysate of transfected PC3 cells, dot blotting and western blotting (6E10); assay type: biochemical; details: cell lysate 48 hr after transfection, Aβ 2 μM, overnight, FIGS. 4a, 4b
Method: as §1
48 hrs later, the cell lysate was mixed with Aβ (2 μM) and incubated for overnight.
To quantify the remaining Aβ peptides, the mixture of cell lysate and Aβ (2 μM) proceeded to dot blotting and the result was analyzed by the same manner as described in Example <2-2>. 1 μl of the mixture of cell lysate and Aβ (2 μM) was dropped on nitrocellulose membrane, which was then completely dried. The dried membrane proceeded to blocking with TBS-T containing 5% nonfat dry milk at room temperature for 1 hr. Then, the membrane was incubated with anti-Aβ antibody, 6E10 (SIGNET; SIG-39300, 1:2000) in 5% nonfat dry milk at 4° C. for overnight. […] After washing three times, proteins were detected using chemiluminescent substrate.

[4] = tested on: Aβ1-40 and Aβ1-42; experiment: Aβ1-40 and Aβ1-42 levels in cortical membrane fractions of 2-PMPA treated APP Swedish/PS1ΔE9 transgenic mice (ELISA); assay type: in vivo, mouse; details: 10 mg/kg intraperitoneally, 2×/wk for 1 month, 8-month old APP Swedish/PS1ΔE9 mice, FIG. 1e
Method: (§2) (a, b) rhGCP II was incubated with Aβ40 or NAAG with or without 2-PMPA or EDTA. A(340 or NAAG level was detected by ELISA or NAAG cleavage assay. (c) After lentiviral GCP II was infected into rat primary astrocytes, monomeric Aβ40 was treated to cells. And 2-PMPA was treated thereto at various doses. The Aβ40 concentration in cell growth medium was measured by ELISA assay. (d, e) Eight-month old APP Swedish/PS1E9 transgenic mice were injected intraperitoneally with 10 mg/kg of 2-PMPA or PBS 2/wk for 1 month (9 times). Membrane fractions were analyzed by NAAG and ELISA assay.
Vectors encoding the hGCP II and various mutant hGCP II genes were transfected into PC3 cells in a 12-well plate. About 30 hr later, the culture medium was changed with fresh one treated with Aβ1-40 of Aβ1-42 peptide in the presence or absence of 2-PMPA, and the cells were incubated for another 8 hr. […]
To investigate the effect of 2-PMPA in the mouse brain, 8-month old APP Swedish/PS1Δ9 mice transfected by the same manner as described in Example <1-6> were treated nine times with 2-PMPA (10 mg/kg, intraperitoneally, 2/wk for 1 month) or the same amount of PBS. Aβp1-40 and Aβ1-42 levels in the cortical membrane fractions were analyzed by the same manner as described in Example <1-3>. NAAG cleavage activity of GCP II was measured by the same manner as described in Example <1-4>.

[5] = biological target: GCP II (Homo sapiens, UniProt Q04609); experiment: NAAG cleavage assay with or without 2-PMPA; assay type: biochemical; details: 20 μM [3H]NAAG, 20 nM 2-PMPA, 1 hr at 37° C.; FIG. 1b
Method: The activity of endogenous or over-expressed Glutamate carboxypeptidase II protein (GCP II) was measured as follows. Cell lysate (50 μg) was incubated with 20 μM of N-acetyl-L-aspartyl-L-[3,4-3H] glutamate (NAAG; NEN corporation) with or without 20 nM 2-PMPA, a GCP II specific inhibitor, in a total volume of 100 μl containing 50 mM HEPES and 150 mM NaCl for 1 hr at 37° C. Upon completion of the reaction, sample mixture was loaded on AG 1-X8 anion-exchange resin (Biorad) prepared in 96 well columns, followed by centrifugation at 2000 rpm for 5 min. The resin bound with the sample mixture was eluted with 0.5 mM formate (100 ml) and centrifuged at 2000 rpm for 5 min. All the eluted samples were mixed with 1 ml of scintillation solution (Optiphase HiSafe; Wallac) and then radioactivity was measured by scintillation counter (Wallac Inc.).

[6] = biological target: recombinant human GCPII (rhGCP II) (Homo sapiens, UniProt Q04609); experiment: Effect of 2-PMPA on Aβ1-40 cleavage of rhGCP II (ELISA); assay type: biochemical; details: 2-PMPA added at different concentrations, FIG. 1a
[7] = biological target: T1, lentiviral GCP II (Homo sapiens, UniProt Q04609); assay type: cell-based
T1 construct: host or cells: rat primary astrocytes (lentiviral infection)

[8] = tested on: Aβ1-40; experiment: Aβ1-40 cleavage by rhGCP II, residual Aβ by ELISA; assay type: biochemical; details: rhGCP II incubated with Aβ1-40, FIG. 1a
Method: as §2
As a result, rhGCP II cleaved Aβ1-40 peptides about 80 percent compared with the control, but 2-PMPA had no effect on Aβ1-40 cleavage of GCP II (see FIG. 1a). […] To investigate the effect of 2-PMPA in the mouse brain, 2-PMPA was treated into transgenic AD model mice. The inventors of the present invention used 2-PMPA (10 mg/kg, intraperitoneally, 2×/wk for 1 month) to treat 8-month old APP Swedish/PS1Δ9 transgenic mice. Aβ1-40 and Aβ1-42 levels in the cortical membrane fractions were analyzed by ELISA and NAAG cleavage activity of GCP II was measured by NAAG assay. As a result, cleavage of NAAG was reduced about 90 percent in 2-PMPA treated mouse compared with PBS control (see FIG. 1d). However, total levels of Aβ1-40 and Aβ1-42 were not changed by the treatment of 2-PMPA (see FIG. 1e). […]

Sequence of recombinant human GCPII (rhGCP II) (Q04609 whole entry): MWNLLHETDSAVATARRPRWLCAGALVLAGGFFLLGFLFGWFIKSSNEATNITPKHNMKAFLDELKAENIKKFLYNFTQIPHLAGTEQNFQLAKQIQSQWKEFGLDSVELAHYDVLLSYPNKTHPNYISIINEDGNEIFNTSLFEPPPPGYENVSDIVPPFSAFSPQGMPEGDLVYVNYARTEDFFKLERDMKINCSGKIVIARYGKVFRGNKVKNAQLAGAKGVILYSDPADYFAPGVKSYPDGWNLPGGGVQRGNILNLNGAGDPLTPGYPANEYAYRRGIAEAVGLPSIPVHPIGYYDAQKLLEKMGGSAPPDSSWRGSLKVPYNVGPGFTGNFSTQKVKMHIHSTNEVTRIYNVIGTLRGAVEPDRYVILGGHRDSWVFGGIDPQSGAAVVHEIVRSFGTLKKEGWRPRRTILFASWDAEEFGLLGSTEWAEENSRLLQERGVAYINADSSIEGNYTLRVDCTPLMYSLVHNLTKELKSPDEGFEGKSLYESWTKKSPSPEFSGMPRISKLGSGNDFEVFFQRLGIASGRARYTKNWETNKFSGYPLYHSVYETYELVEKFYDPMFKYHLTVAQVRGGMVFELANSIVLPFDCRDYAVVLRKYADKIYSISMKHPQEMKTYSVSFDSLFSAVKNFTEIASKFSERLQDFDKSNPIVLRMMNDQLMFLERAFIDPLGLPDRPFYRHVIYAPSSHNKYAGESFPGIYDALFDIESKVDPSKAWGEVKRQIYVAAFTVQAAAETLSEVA
Sequence of GCP II (Q04609 whole entry): as above
T1 sequence (Q04609 whole entry): as above

## K699S: GCP II mutant: 699th amino acid Lysine replaced with Serine, SEQ ID. NO: 2; S1′ pocket mutant
[1]
  activity of NAAG hydrolysis (in words): completely lost; also recorded: did not cleave
[2]
  residual Aβ in culture medium: reduced
[3]
  Aβ cleavage activity compared with wild type: higher Aβ cleavage activity than the wild type; also recorded: cleaved; also recorded: cleaved Aβ more than wild type

## O=C(O)CCC(CP(=O)(O)O)C(=O)O (stereo not drawn) [2-PMPA, 2-(Phosphonomethyl) pentanedioic acid]
[4]
  total level of Aβ1-40: not changed
  total level of Aβ1-42: not changed
[5]
  hydrolysis of NAAG by GCP II: completely blocked
[6]
  effect on Aβ1-40 cleavage of rhGCP II: no effect
[7]
  Aβ1-40 cleavage of lentiviral GCP II: did not block

## rhGCP II: recombinant human GCPII (glutamate carboxypeptidase II), wild type
[8]
  Aβ1-40 peptide cleaved compared with control: about 80%

## G548P: GCP II mutant protein with a substitution in the S1 pocket
[1]; listed as R548P
  activity of NAAG hydrolysis maintained compared with wild type GCP II: about 40%
[2]
  residual Aβ in culture medium: not
[3]
  Aβ cleavage activity compared with wild type: lost Aβ cleavage activity; also recorded: did not; also recorded: lost its Aβ clearance activity
